From patent US4061776A, “Pharmaceutically active 2-omega-aminoalkoxydiphenyl ethers” (Mitsubishi Chemical Industries Ltd., priority 1976, dated 1977)
Counter-ions that a name gives are not always drawn.

Assays:
[1] = system: reserpine induced hypothermia; experiment: antagonism of reserpine (5 mg/kg i.p.) induced hypothermia (antireserpine/antidepressant activity) in mice; type: in vivo; settings: for Antireserpine Activity in Mice, Relative Potency: reserpine 5 mg/kg i.p., Amitriptyline = 1; for antidepressant activity (in words): reserpine hypothermia
Experimental: (§1) The compounds were administered intraperitoneally and activities of the compounds were compared with those of Amitriptyline.

in vivo = settings: mouse, ip
[2] = system: neurological deficit as measured by traction test; settings: mouse, in vivo, ip
Experimental: as §1

[3] = system: neurological deficit as measured by traction test; experiment: CNS depressant activity, neurological deficit by traction test (muscle relaxant action) in mice; settings: Mus musculus, ip, read-out: Muscle Relaxant Action ED50
Experimental: as §1

tremorine induced tremor [4] = experiment: central anticholinergic effect, tremorine induced tremor in mice; settings: Mus musculus, ip, read-out: Antitremorine Effect ED50
Experimental: as §1

tremorine induced tremor [5] = settings: mouse, in vivo, ip
Experimental: as §1

[6] = system: electroshock induced tonic extensor; experiment: anticonvulsant activity, antagonism of electroshock induced tonic extensor in mice; type: in vivo; settings: Mus musculus, ip, dose preventing 50% of response, read-out: Anti-Convulsant Activity ED50
Experimental: as §1

[7] = system: spontaneous motor activity; experiment: CNS depressant activity, spontaneous motor activity measured by ANIMEX apparatus in mice; settings: Mus musculus, ip, read-out: Spontaneous Motor Activity Depression ED50
Experimental: as §1

mice = settings: i.p.

| Structure (SMILES) | Antireserpine Activity in Mice, Relative Potency [1] | antidepressant activity (in words) [1] | LD50 (in vivo) [mg/kg] | other results |
| --- | --- | --- | --- | --- |
| CN(C)CCCOc1ccccc1Oc1ccccc1 [2-(3-dimethylaminopropoxy)diphenyl ether hydrochloride, reference compound] | 0.14 | – | – | – |
| CNCCCOc1ccccc1Oc1ccccc1 [2-(3-methylaminopropoxy)diphenyl ether hydrochloride, reference compound] | 0.28 | – | – | – |
| NCCCCOc1ccccc1Oc1ccccc1 [2-(4-aminobutoxy)diphenyl ether hydrochloride] | 0.28 | – | – | – |
| CN(C)CCCCOc1ccccc1Oc1ccccc1 [2-(4-dimethylaminobutoxy)diphenyl ether hydrochloride] | 0.58 | best activity of all compounds of the present invention tested | 92 | – |
| CNCCCCOc1ccccc1Oc1ccccc1 [2-(4-methylaminobutoxy)diphenyl ether hydrochloride] | 1.10 | best activity of all compounds of the present invention tested | 100 | CNS depressant action (in words) [2]: weak; antireserpine activity compared with Amitriptyline (in words) ([1]; versus Amitriptyline): comparable to that of Amitriptyline; ED50 [3]: 60 mg/kg; ED50 (tremorine induced tremor [4]): 30 mg/kg; anticholinergic action (in words) (tremorine induced tremor [5]): weak; ED50 [6]: 32 mg/kg; ED50 [7]: 60 mg/kg; toxicity (in words) (mice): low toxicity |
| c1ccc(Oc2ccccc2OCCCCN2CCOCC2)cc1 [2-(4-morpholinobutoxy)diphenyl ether hydrochloride, reference compound] | 0.21 | – | – | – |
| CN(C)CCCCCOc1ccccc1Oc1ccccc1 [2-(5-dimethylaminopentyloxy)diphenyl ether hydrochloride] | 0.24 | – | – | – |
| CNCCCCCOc1ccccc1Oc1ccccc1 [2-(5-methylaminopentyloxy)diphenyl ether hydrochloride] | 0.57 | best activity of all compounds of the present invention tested | 85 | – |
| CN(C)CCC=C1c2ccccc2CCc2ccccc21 [Amitriptyline, reference compound] | – | – | – | LD50 (mice; Litchfield-Wilcoxon method): 65 mg/kg i.p. |
